In patent US9113629B2, “4-amino-6-(4-substituted-phenyl)-picolinates and 6-amino-2-(4-substituted-phenyl)-pyrimidine-4-carboxylates and their use as herbicides” (DOW AGROSCIENCES LLC, priority 2013, dated 2015):

Each compound was assayed on Key Grass and Sedge Weeds as well as Grass Crops (assay: Post-emergent Test II herbicidal activity (Table 6)). Settings: Triticum aestivum, post-emergence, 336 h, TRZSS (wheat), application rate 70 g ai/ha, read-out: Visual Growth Reduction (%) 14 Days After Application, TRZSS.
Assay type: in vivo
Outline: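 Test species were raised 7–21 d under greenhouse conditions until reaching the first or second true leaf, sprayed with formulated compound at 187 L/ha, and kept subirrigated to avoid wash-off. Fourteen days later, damage was rated visually on a 0–100% scale against untreated plants.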

Row | Compound | pest or weed control at 70 g/ha [%]
1 | C#Cc1ccc(-c2cc(N)c(Cl)c(C(=O)OC)n2)cc1 [Compound 126] | 0 to 29

Same assay, conditions: Triticum aestivum, post-emergence, 336 h, TRZSS (wheat), application rate 140 g ai/ha, read-out: Visual Growth Reduction (%) 14 Days After Application, TRZSS

Row | Compound | pest or weed control at 140 g/ha [%]
2 | C#Cc1ccc(-c2cc(N)c(Cl)c(C(=O)OC)n2)cc1 [Compound 126] | 0 to 29

Same assay, conditions: post-emergence, 336 h, CYPES: yellow nutsedge (Cyperus esculentus), application rate 70 g ai/ha, read-out: Visual Growth Reduction (%) 14 Days After Application, CYPES

Row | Compound | pest or weed control at 70 g/ha [%]
3 | C#Cc1ccc(-c2cc(N)c(Cl)c(C(=O)OC)n2)cc1 [Compound 126] | 60 to 74

Same assay, conditions: post-emergence, 336 h, CYPES: yellow nutsedge (Cyperus esculentus), application rate 140 g ai/ha, read-out: Visual Growth Reduction (%) 14 Days After Application, CYPES

Row | Compound | pest or weed control at 140 g/ha [%]
4 | C#Cc1ccc(-c2cc(N)c(Cl)c(C(=O)OC)n2)cc1 [Compound 126] | 30 to 44

Same assay, conditions: post-emergence, 336 h, DIGSA: crabgrass (Digitaria sanguinalis), application rate 70 g ai/ha, read-out: Visual Growth Reduction (%) 14 Days After Application, DIGSA

Row | Compound | pest or weed control at 70 g/ha [%]
5 | C#Cc1ccc(-c2cc(N)c(Cl)c(C(=O)OC)n2)cc1 [Compound 126] | 75 to 84

Same assay, conditions: post-emergence, 336 h, DIGSA: crabgrass (Digitaria sanguinalis), application rate 140 g ai/ha, read-out: Visual Growth Reduction (%) 14 Days After Application, DIGSA

Row | Compound | pest or weed control at 140 g/ha [%]
6 | C#Cc1ccc(-c2cc(N)c(Cl)c(C(=O)OC)n2)cc1 [Compound 126] | 85 to 94

Same assay, conditions: post-emergence, 336 h, ECHCG: barnyardgrass (Echinochloa crus-galli), application rate 70 g ai/ha, read-out: Visual Growth Reduction (%) 14 Days After Application, ECHCG

Row | Compound | pest or weed control at 70 g/ha [%]
7 | C#Cc1ccc(-c2cc(N)c(Cl)c(C(=O)OC)n2)cc1 [Compound 126] | 95 to 100

Same assay, conditions: post-emergence, 336 h, ECHCG: barnyardgrass (Echinochloa crus-galli), application rate 140 g ai/ha, read-out: Visual Growth Reduction (%) 14 Days After Application, ECHCG

Row | Compound | pest or weed control at 140 g/ha [%]
8 | C#Cc1ccc(-c2cc(N)c(Cl)c(C(=O)OC)n2)cc1 [Compound 126] | 95 to 100

Same assay, conditions: post-emergence, 336 h, ORYSA: rice (Oryza sativa), application rate 70 g ai/ha, read-out: Visual Growth Reduction (%) 14 Days After Application, ORYSA

Row | Compound | pest or weed control at 70 g/ha [%]
9 | C#Cc1ccc(-c2cc(N)c(Cl)c(C(=O)OC)n2)cc1 [Compound 126] | 0 to 29

Same assay, conditions: post-emergence, 336 h, ORYSA: rice (Oryza sativa), application rate 140 g ai/ha, read-out: Visual Growth Reduction (%) 14 Days After Application, ORYSA

Row | Compound | pest or weed control at 140 g/ha [%]
10 | C#Cc1ccc(-c2cc(N)c(Cl)c(C(=O)OC)n2)cc1 [Compound 126] | 0 to 29

Same assay, conditions: post-emergence, 336 h, SETFA: giant foxtail (Setaria faberi), application rate 70 g ai/ha, read-out: Visual Growth Reduction (%) 14 Days After Application, SETFA

Row | Compound | pest or weed control at 70 g/ha [%]
11 | C#Cc1ccc(-c2cc(N)c(Cl)c(C(=O)OC)n2)cc1 [Compound 126] | 0 to 29

Same assay, conditions: post-emergence, 336 h, SETFA: giant foxtail (Setaria faberi), application rate 140 g ai/ha, read-out: Visual Growth Reduction (%) 14 Days After Application, SETFA

Row | Compound | pest or weed control at 140 g/ha [%]
12 | C#Cc1ccc(-c2cc(N)c(Cl)c(C(=O)OC)n2)cc1 [Compound 126] | 75 to 84

Same assay, conditions: post-emergence, 336 h, SORVU: grain sorghum (Sorghum vulgare), application rate 70 g ai/ha, read-out: Visual Growth Reduction (%) 14 Days After Application, SORVU

Row | Compound | pest or weed control at 70 g/ha [%]
13 | C#Cc1ccc(-c2cc(N)c(Cl)c(C(=O)OC)n2)cc1 [Compound 126] | 75 to 84

Same assay, conditions: post-emergence, 336 h, SORVU: grain sorghum (Sorghum vulgare), application rate 140 g ai/ha, read-out: Visual Growth Reduction (%) 14 Days After Application, SORVU

Row | Compound | pest or weed control at 140 g/ha [%]
14 | C#Cc1ccc(-c2cc(N)c(Cl)c(C(=O)OC)n2)cc1 [Compound 126] | 85 to 94

Same assay, conditions: post-emergence, 336 h, ZEAMX: maize, corn (Zea mays), application rate 70 g ai/ha, read-out: Visual Growth Reduction (%) 14 Days After Application, ZEAMX

Row | Compound | pest or weed control at 70 g/ha [%]
15 | C#Cc1ccc(-c2cc(N)c(Cl)c(C(=O)OC)n2)cc1 [Compound 126] | 0 to 29

Same assay, conditions: post-emergence, 336 h, ZEAMX: maize, corn (Zea mays), application rate 140 g ai/ha, read-out: Visual Growth Reduction (%) 14 Days After Application, ZEAMX

Row | Compound | pest or weed control at 140 g/ha [%]
16 | C#Cc1ccc(-c2cc(N)c(Cl)c(C(=O)OC)n2)cc1 [Compound 126] | 60 to 74
